Experimental data from PubChem BioAssay AID248 (DTP/NCI, 2004).
“And” between values parts separate entries of the source, which are not always exact repeats. Identical values can stand only once. Toxic doses and inconclusive results are not listed. Rule as the data show it: active = T/C of 150% or more; inactive = T/C below 125%.

System: L1210 leukemia ip in BDF1 mice, survival T/C
Experiment: NCI In Vivo Anticancer Drug Screen. Data for tumor model L1210 Leukemia (intraperitoneal) in B6D2F1 (BDF1) mice
Conditions: endpoint: mean survival time, higher = longer survival
Outline: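 Read-out is survival time, reported as the treated-group measurement over the vehicle-control measurement.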

[1] = dose: 100.0 mg/kg/injection, schedule: Q01DX009 (ip), vehicle: saline with Tween-80
[2] = dose: 100.0 mg/kg/injection, schedule: Q04DX003 (ip), vehicle: Klucel (hydroxypropylcellulose) (HPC)
[3] = dose: 200.0 mg/kg/injection, schedule: Q01DX009 (ip), vehicle: saline with Tween-80
[4] = dose: 100.0 mg/kg/injection, schedule: Q04DX003 (ip), vehicle: saline
[5] = dose: 200.0 mg/kg/injection, schedule: Q04DX003 (ip), vehicle: saline
[6] = dose: 400.0 mg/kg/injection, schedule: Q01DX009 (ip), vehicle: saline with Tween-80
[7] = dose: 400.0 mg/kg/injection, schedule: Q04DX003 (ip), vehicle: saline
[8] = dose: 100.0 mg/kg/injection, schedule: Q01DX001 (ip), vehicle: saline with Tween-80
[9] = dose: 200.0 mg/kg/injection, schedule: Q01DX001 (ip), vehicle: saline with Tween-80
[10] = dose: 400.0 mg/kg/injection, schedule: Q01DX001 (ip), vehicle: saline with Tween-80
[11] = dose: 100.0 mg/kg/injection, schedule: Q01DX001 (ip), vehicle: carboxymethylcellulose (CMC)
[12] = dose: 200.0 mg/kg/injection, schedule: Q01DX001 (ip), vehicle: carboxymethylcellulose (CMC)
[13] = dose: 400.0 mg/kg/injection, schedule: Q01DX001 (ip), vehicle: carboxymethylcellulose (CMC)
[14] = dose: 100.0 mg/kg/injection, schedule: Q04DX003 (ip), vehicle: saline with Tween-80
[15] = dose: 200.0 mg/kg/injection, schedule: Q04DX003 (ip), vehicle: saline with Tween-80
[16] = dose: 400.0 mg/kg/injection, schedule: Q04DX003 (ip), vehicle: saline with Tween-80
[17] = dose: 100.0 mg/kg/injection, schedule: Q01DX001 (ip), vehicle: saline
[18] = dose: 200.0 mg/kg/injection, schedule: Q01DX001 (ip), vehicle: saline
[19] = dose: 400.0 mg/kg/injection, schedule: Q01DX001 (ip), vehicle: saline
[20] = dose: 100.0 mg/kg/injection, schedule: Q04DX002 (ip), vehicle: Klucel (hydroxypropylcellulose) (HPC)
[21] = dose: 200.0 mg/kg/injection, schedule: Q04DX002 (ip), vehicle: Klucel (hydroxypropylcellulose) (HPC)
[22] = dose: 400.0 mg/kg/injection, schedule: Q04DX002 (ip), vehicle: Klucel (hydroxypropylcellulose) (HPC)
[23] = dose: 100.0 mg/kg/injection, schedule: Q04DX002 (ip), vehicle: saline
[24] = dose: 200.0 mg/kg/injection, schedule: Q04DX002 (ip), vehicle: saline
[25] = dose: 400.0 mg/kg/injection, schedule: Q04DX002 (ip), vehicle: saline

Measured: T/C

CSc1ncnc2c1ncn2CC(=O)C1CCC2C3CCC4=CC(=O)CCC4(C)C3CCC12C (stereo not drawn)
inactive: dose: 100.0 mg/kg/injection, schedule: Q01DX001 (sc), vehicle: steriod suspending solution 99 % of control | dose: 200.0 mg/kg/injection, schedule: Q01DX001 (sc), vehicle: steriod suspending solution 100 % of control | dose: 400.0 mg/kg/injection, schedule: Q01DX001 (sc), vehicle: steriod suspending solution 99 % of control

CCC(C)C(C#N)(CCN1CCCCC1)Cc1cccc2ccccc12 (stereo not drawn)
inactive: dose: 25.0 mg/kg/injection, schedule: Q04DX003 (ip), vehicle: Klucel (hydroxypropylcellulose) (HPC) 109 % of control | dose: 50.0 mg/kg/injection, schedule: Q04DX003 (ip), vehicle: Klucel (hydroxypropylcellulose) (HPC) 98 % of control | [1] 96 % of control | [2] 95 % of control

COCCCCO
inactive: dose: 50.0 mg/kg/injection, schedule: Q01DX009 (ip), vehicle: saline with Tween-80 97 % of control | [1] 97 % of control | [3] 90 % of control

COc1ccc(C(=O)C(C)C(O)C(=O)O)c(O)c1C (stereo not drawn)
inactive: [1] 96 % of control | [4] 97 % of control | [3] 100 % of control | [5] 94 % of control | [6] 102 % of control | [7] 98 % of control

NCCCP(c1ccccc1)c1ccccc1
inactive: dose: 75.0 mg/kg/injection, schedule: Q01DX001 (ip), vehicle: saline 105 % of control | dose: 150.0 mg/kg/injection, schedule: Q01DX001 (ip), vehicle: saline 92 % of control

CCCCCCCCCCC/C(C)=N/Nc1ccc([N+](=O)[O-])cc1[N+](=O)[O-]
inactive: [8] 94 % of control | [9] 92 % of control | [10] 92 % of control

O=C1c2cc(Br)ccc2-c2c(Cl)cc(Br)cc21
inactive: [11] 105 % of control | [12] 97 % of control | [13] 105 % of control

c1ccc(N=Nc2ccc[nH]2)cc1
inactive: dose: 50.0 mg/kg/injection, schedule: Q01DX009 (ip), vehicle: acetone 98 % of control | dose: 100.0 mg/kg/injection, schedule: Q01DX009 (ip), vehicle: acetone 102 % of control

OCC1COc2ccccc2O1 (stereo not drawn)
inactive: [4] 101 % of control | [5] 106 % of control | [7] 103 % of control

FC(F)(F)c1ccc2c(c1)N(CCCN1CCN(CCN3CCCCC3)CC1)c1ccccc1S2
inactive: dose: 12.5 mg/kg/injection, schedule: Q01DX009 (ip), vehicle: saline 93 % of control | dose: 12.5 mg/kg/injection, schedule: Q04DX003 (ip), vehicle: saline 94 % of control | dose: 25.0 mg/kg/injection, schedule: Q01DX009 (ip), vehicle: saline 86 % of control | dose: 25.0 mg/kg/injection, schedule: Q04DX003 (ip), vehicle: saline 96 % of control | dose: 50.0 mg/kg/injection, schedule: Q04DX003 (ip), vehicle: saline 92 % of control

CC(C)CCC[C@@H](C)[C@H]1CC[C@H]2[C@@H]3CC=C4C[C@@H](Cl)CC[C@]4(C)[C@H]3CC[C@]12C
inactive: dose: 100.0 mg/kg/injection, schedule: Q01DX009 (sc), vehicle: Klucel (hydroxypropylcellulose) (HPC) 110 % of control | dose: 200.0 mg/kg/injection, schedule: Q01DX009 (sc), vehicle: Klucel (hydroxypropylcellulose) (HPC) 101 % of control | dose: 400.0 mg/kg/injection, schedule: Q01DX009 (sc), vehicle: Klucel (hydroxypropylcellulose) (HPC) 114 % of control

CN(C)CCCN=C=NC1CCCCC1
inactive: [2] 98 % of control | dose: 200.0 mg/kg/injection, schedule: Q04DX003 (ip), vehicle: Klucel (hydroxypropylcellulose) (HPC) 95 % of control

Cc1cc(C)c(C(=O)Oc2ccc3ccccc3c2)c(C)c1
inactive: [14] 92 % of control | [15] 92 % of control | [16] 86 % of control

CCCCCCCCCCCCCCCCCCNc1nc(SC)ncc1C(=O)OCC
inactive: dose: 25.0 mg/kg/injection, schedule: Q01DX001 (ip), vehicle: saline 103 % of control | dose: 50.0 mg/kg/injection, schedule: Q01DX001 (ip), vehicle: saline 102 % of control | [17] 101 % of control and 102 % of control

O=C(NCc1ccccc1)C(Cc1ccccc1)Cc1ccccc1
inactive: [11] 93 % of control | [12] 95 % of control | [13] 98 % of control

O=C(Nc1ccc(S(=O)(=O)NC2CCCCC2)cc1)OCc1ccccc1
inactive: [17] 95 % of control | [18] 89 % of control | [19] 95 % of control

CCOc1ccc(N=Cc2ccccc2OC(=O)c2ccccc2)cc1
inactive: [20] 105 % of control | [21] 101 % of control | [22] 97 % of control

CC1(c2cccc(Cl)c2)NC(=O)NC1=O (stereo not drawn)
inactive: [20] 112 % of control | [21] 105 % of control | [22] 108 % of control

COc1ccc(CCN)cc1OC
inactive: [23] 106 % of control | [24] 100 % of control | [25] 100 % of control

O=C(Nc1ccc(F)cc1)c1ccc(C(=O)Nc2ccc(F)cc2)cc1
inactive: dose: 50.0 mg/kg/injection, schedule: Q04DX003 (ip), vehicle: saline with Tween-80 91 % of control | [17] 100 % of control | [1] 100 % of control | [14] 96 % of control | [18] 96 % of control | [3] 108 % of control | [15] 96 % of control | [19] 102 % of control | [6] 94 % of control

O=C1C=C(O)c2[nH]c(=O)ccc2C1=O
inactive: dose: 5.0 mg/kg/injection, schedule: Q01DX001 (ip), vehicle: saline 97 % of control | dose: 10.0 mg/kg/injection, schedule: Q01DX001 (ip), vehicle: saline 101 % of control | dose: 20.0 mg/kg/injection, schedule: Q01DX001 (ip), vehicle: saline 97 % of control | dose: 40.0 mg/kg/injection, schedule: Q01DX001 (ip), vehicle: saline 97 % of control

CCCn1c2c(c(=O)n(CC)c1=O)SC(OCC)C(=O)N2 (stereo not drawn)
inactive: dose: 78.0 mg/kg/injection, schedule: Q01DX Z (ip), vehicle: other 96 % of control and 103 % of control | dose: 116.0 mg/kg/injection, schedule: Q01DX Z (ip), vehicle: other 108 % of control and 110 % of control | dose: 175.0 mg/kg/injection, schedule: Q01DX Z (ip), vehicle: other 116 % of control and 87 % of control | dose: 262.5 mg/kg/injection, schedule: Q01DX Z (ip), vehicle: other 92 % of control

CCOc1ccccc1CC(=O)O
inactive: [1] 88 % of control | [14] 92 % of control | [3] 98 % of control | [15] 87 % of control | [6] 101 % of control | [16] 92 % of control

C/C=C/c1cc(C)cc(C)c1OC(C)CC (stereo not drawn)
inactive: dose: 100.0 mg/kg/injection, schedule: Q04DX002 (ip), vehicle: saline with Tween-80 104 % of control | dose: 200.0 mg/kg/injection, schedule: Q04DX002 (ip), vehicle: saline with Tween-80 93 % of control

CC(O)Cn1cnc2c1c(=O)n(C)c(=O)n2C (stereo not drawn)
inactive: dose: 100.0 mg/kg/injection, schedule: Q01DX009 (ip), vehicle: saline 93 % of control | [4] 95 % of control | dose: 200.0 mg/kg/injection, schedule: Q01DX009 (ip), vehicle: saline 95 % of control | [5] 95 % of control | [7] 94 % of control

Cc1nc(N)[nH]c(=O)c1N (tested in a mixture with another compound)
inactive: [8] 103 % of control | [9] 107 % of control | [10] 97 % of control

O=C(Nc1ccc([N+](=O)[O-])cc1)N(c1ccccc1)c1cc(N2CCOCC2)ccn1
inactive: [17] 91 % of control | [18] 91 % of control | [19] 88 % of control

c1cc2c(cc1CCc1ccc3c(c1)OCO3)OCO2
inactive: [20] 96 % of control | [21] 86 % of control | [22] 104 % of control

CSc1nc(N)c(N)c(N)n1
inactive: [20] 103 % of control | [21] 110 % of control | [22] 103 % of control

Cc1ccc(C(=O)N/N=C/c2ccccc2Cl)cc1
inactive: [20] 101 % of control | [21] 93 % of control | [22] 104 % of control

Cc1ncc(CO)c(Cc2ccc(N(C)C)cc2)c1O
inactive: [23] 88 % of control | [24] 103 % of control | [25] 95 % of control
